Results on 1 compound are retold here after ChEMBL document CHEMBL4680212, “Discovery of T-1101 tosylate as a first-in-class clinical candidate for Hec1/Nek2 inhibition in cancer therapy” (Eur J Med Chem, 2020).

Series [1] has as its target Voltage-gated inwardly rectifying potassium channel KCNH2 (Homo sapiens, UniProt Q12809). The series is described as follows: Inhibition of human ERG.
A short description of series [2]: Ratio of drug level in tumor to plasma of human Huh-7 cells xenografted SCID mouse at 10 mg/kg, iv measured after 1 hr by LC-MS/MS analysis. The format is ADME, organism-based. The conditions noted are these: tumour. On the technique in general: Xenograft models place foreign cells or tissue in a host animal.
A further series has as its system BT-474. Put plainly: Antitumor activity against human BT-474 cells xenografted in SCID mouse assessed as tumor growth at 50 mg/kg, po administered twice daily for 28 days measured post last dose relative to control. It is filed as functional. The conditions noted are these: time 28 day.
Series [3] relates to Huh-7. The series is described as follows: Antitumor activity against human Huh-7 cells xenografted in SCID mouse assessed as tumor growth at […], po administered twice daily for 28 days measured post last dose in presence of sorafenib relative to control. The format is functional. As to conditions: time 28 day; call rule not given here.
The nature of series [4]: Drug level in tumor of human Huh-7 cells xenografted SCID mouse at 10 mg/kg, iv measured after 0.5 hrs by LC-MS/MS analysis. It is filed as ADME, organism-based, Neoplasm. The conditions noted are these: read-out: Drug uptake.
A short description of series [5]: Cmax in CD-1 mouse at 10 mg/kg, po administered as single dose via gavage by LC-MS/MS analysis. The conditions noted are these: in vivo. It is filed as ADME, organism-based. More on the design: route oral, dose 10 mg/kg.
Series [6] can be described thus: Ratio of drug level in tumor to plasma of human Huh-7 cells xenografted SCID mouse at 10 mg/kg, iv measured after 0.5 hrs by LC-MS/MS analysis. It is filed as ADME, organism-based. As to conditions: tumour.
Series [7] has as its system Huh-7. The series is described as follows: Antiproliferative activity against human Huh-7 cells by CellTiter 96 Aqueous One Solution Reagent based assay. More on the design: dose or concentration left out as unconfirmed. It is filed as functional.
A short description of series [8]: Toxicity in Sprague-Dawley rat assessed as change in clinical pathology at 60 mg/kg, po measured during 28 days. The format is organism-based. As to conditions: in vivo, time 28 day.
A short description of series [9]: Drug level in tumor of human MDA-MB-231 cells xenografted SCID mouse at 10 mg/kg, iv measured after 2 hrs by LC-MS/MS analysis. It is filed as ADME, organism-based, Neoplasm. As to conditions: read-out: Drug uptake.
The nature of series [10]: Half life in CD-1 mouse at 10 mg/kg, po administered as single dose via gavage by LC-MS/MS analysis. It is filed as ADME, organism-based. The conditions noted are these: in vivo.
Series [11] is described as follows: Ratio of drug level in tumor to plasma of human Huh-7 cells xenografted SCID mouse at 10 mg/kg, iv measured after 24 hrs by LC-MS/MS analysis. It is filed as ADME, organism-based. The conditions noted are these: tumour.

Sequence of Voltage-gated inwardly rectifying potassium channel KCNH2 (Q12809 whole entry): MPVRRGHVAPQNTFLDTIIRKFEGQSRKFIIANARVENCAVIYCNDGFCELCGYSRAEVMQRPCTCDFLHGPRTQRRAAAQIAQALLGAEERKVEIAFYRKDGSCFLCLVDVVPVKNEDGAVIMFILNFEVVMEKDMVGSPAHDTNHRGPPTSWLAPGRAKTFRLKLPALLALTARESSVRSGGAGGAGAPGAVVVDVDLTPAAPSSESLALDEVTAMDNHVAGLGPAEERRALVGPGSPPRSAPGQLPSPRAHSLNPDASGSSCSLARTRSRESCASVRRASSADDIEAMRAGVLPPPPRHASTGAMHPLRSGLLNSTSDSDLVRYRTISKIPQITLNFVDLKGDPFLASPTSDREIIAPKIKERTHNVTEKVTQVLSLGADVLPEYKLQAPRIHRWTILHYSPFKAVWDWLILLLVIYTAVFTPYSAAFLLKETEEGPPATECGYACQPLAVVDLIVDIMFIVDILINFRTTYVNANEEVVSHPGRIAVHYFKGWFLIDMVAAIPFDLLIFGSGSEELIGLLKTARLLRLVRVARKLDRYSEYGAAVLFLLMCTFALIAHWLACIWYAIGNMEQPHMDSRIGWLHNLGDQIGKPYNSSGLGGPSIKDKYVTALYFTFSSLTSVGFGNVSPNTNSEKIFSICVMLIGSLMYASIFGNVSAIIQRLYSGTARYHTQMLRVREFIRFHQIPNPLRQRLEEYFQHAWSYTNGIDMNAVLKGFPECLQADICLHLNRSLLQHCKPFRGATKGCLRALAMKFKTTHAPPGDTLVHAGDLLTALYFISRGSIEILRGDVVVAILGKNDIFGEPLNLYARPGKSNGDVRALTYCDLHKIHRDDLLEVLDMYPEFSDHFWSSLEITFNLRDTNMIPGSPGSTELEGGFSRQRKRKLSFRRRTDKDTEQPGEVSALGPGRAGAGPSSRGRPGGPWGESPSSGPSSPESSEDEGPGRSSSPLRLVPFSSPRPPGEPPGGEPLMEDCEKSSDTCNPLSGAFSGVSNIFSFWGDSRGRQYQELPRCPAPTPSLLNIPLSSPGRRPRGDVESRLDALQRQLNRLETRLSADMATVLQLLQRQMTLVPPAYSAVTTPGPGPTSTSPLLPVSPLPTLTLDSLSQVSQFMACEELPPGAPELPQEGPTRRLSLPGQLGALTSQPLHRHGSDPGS

Consider `COCCOc1cnc(Sc2cc(C)c(-c3csc(NC(=O)c4ccncc4)n3)c(C)c2)cn1`, for which the “inhibition (INH)” value in series [1] was “Not Active”. Besides, the Ratio in series [2] was found to be 26.1%; in series [6] it was 20.7%; in series [11], 41.1%. Besides, the T/C in the series on BT-474 is on record as 19%; with Huh-7 [3] it was 26%. In addition, in series [4], the concentration at 0.5 h was 3.38 µM. Besides, the highest concentration (Cmax) in series [5] is 6.3 µM. This compound also gave a 50% growth inhibitory concentration (GI50) with Huh-7 [7] of 35 nM. Besides, the Activity result in [8] was “Non-Toxic”. Besides, the concentration at 2 h in [9] is 2950 nM. This compound also had a half-life in series [10] of 154 min.

As usually defined, the T/C is the ratio of treated to control. Usually Cmax stands for the highest concentration seen after dosing. For orientation: GI50 means the concentration that inhibits growth by half. Broadly, the half-life is how long it takes for the measured level to halve.
